# Test results: patent US20230201426A1, “GEL COMPOSITION AND PRODUCTION METHOD THEREFOR, AND THREE-DIMENSIONAL TISSUE BODY AND PRODUCTION METHOD THEREFOR” (TOPPAN INC., priority 2020, published 2023)
# Test system: human mammary gland cancer cells (MDA-MB-231)
# Experiment: Viability of cells cultured after mixing the cell suspension with the Pt^2+ solution alone
# Assay type: cell-based
# Conditions: final concentration of Pt^2+ 0.05 mM to 0.5 mM
structure (smiles),measurement,value
"[Cl][Pt-2]([Cl])([Cl])[Cl].[K+].[K+] [Pt^2+ solution, Potassium tetrachloroplatinate(II) (K2PtCl4)]",cytotoxicity,significant cytotoxicity was not recognized
